From BindingDB's records for doi:10.1016/j.bmc.2009.04.013 (Biocryst Pharmaceuticals, 2009)

What was measured:
[1] = biological target: T1, Serine protease 1 (Bos taurus, UniProt P00760); experiment: TF-FVIIa Enzyme Inhibition Assay; details: 25 °C
T1 sequence (P00760 whole entry): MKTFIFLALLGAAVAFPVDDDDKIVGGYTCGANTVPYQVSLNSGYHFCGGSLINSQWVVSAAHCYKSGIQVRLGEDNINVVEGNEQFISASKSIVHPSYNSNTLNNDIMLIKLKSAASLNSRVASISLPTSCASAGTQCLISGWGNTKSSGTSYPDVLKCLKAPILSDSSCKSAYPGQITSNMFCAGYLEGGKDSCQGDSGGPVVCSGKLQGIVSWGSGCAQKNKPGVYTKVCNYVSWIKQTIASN

[2] = biological target: T2, Coagulation factor VII (Homo sapiens, UniProt P08709); experiment: TF-FVIIa Enzyme Inhibition Assay
T2 sequence (P08709 whole entry): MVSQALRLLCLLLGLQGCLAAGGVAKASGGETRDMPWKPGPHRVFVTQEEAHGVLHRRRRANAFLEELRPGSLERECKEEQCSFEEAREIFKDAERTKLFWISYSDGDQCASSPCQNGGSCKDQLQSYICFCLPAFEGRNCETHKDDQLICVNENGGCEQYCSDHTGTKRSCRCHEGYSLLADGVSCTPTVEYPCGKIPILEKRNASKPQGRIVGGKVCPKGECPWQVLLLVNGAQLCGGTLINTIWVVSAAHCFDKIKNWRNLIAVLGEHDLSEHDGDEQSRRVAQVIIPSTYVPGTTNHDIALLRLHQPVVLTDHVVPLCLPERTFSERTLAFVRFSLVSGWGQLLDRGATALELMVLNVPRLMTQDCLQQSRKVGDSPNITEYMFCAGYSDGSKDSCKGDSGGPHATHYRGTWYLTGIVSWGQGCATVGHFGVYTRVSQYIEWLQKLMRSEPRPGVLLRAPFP

IC50 [1] [nM]	SMILES	other results
470	CC(C)CNC(=O)c1ccc(-c2ccc(-c3ccoc3)cc2C(=O)Nc2ccc(C(=N)N)cc2)c(C(=O)O)c1 [substituted biphenyl derivative, 36ac]	
4390	CC(C)CNC(=O)c1ccc(-c2ccc(-c3sccc3CO)cc2C(=O)Nc2ccc(C(=N)N)cc2)c(C(=O)O)c1 [substituted biphenyl derivative, 36aj]	
170	CC(C)CNC(=O)c1ccc(-c2ccccc2C(=O)Nc2ccc(C(=N)N)cc2)c(C(=O)O)c1	
430	CC(C)CNC(=O)c1ccc(-c2ccc(-c3ccc[nH]3)cc2C(=O)Nc2ccc(C(=N)N)cc2)c(C(=O)O)c1 [substituted biphenyl derivative, 36ad]	
420	CC(C)CNC(=O)c1ccc(-c2ccc(-c3ccccc3)cc2C(=O)Nc2ccc(C(=N)N)cc2)c(C(=O)O)c1 [substituted biphenyl derivative, 36v]	
3040	CC(C)CNC(=O)c1ccc(-c2ccc(-c3ccsc3CO)cc2C(=O)Nc2ccc(C(=N)N)cc2)c(C(=O)O)c1 [substituted biphenyl derivative, 36ai]	
1470	CC(C)CNC(=O)c1ccc(-c2ccc(-c3nccs3)cc2C(=O)Nc2ccc(C(=N)N)cc2)c(C(=O)O)c1 [substituted biphenyl derivative, 36af]	
560	C=C=Cc1ccc(-c2ccc(C(=O)NCC(C)C)cc2C(=O)O)c(C(=O)Nc2ccc(C(=N)N)cc2)c1 [substituted biphenyl derivative, 36h]	
1340	C/C=C\Cc1ccc(-c2ccc(C(=O)NCC(C)C)cc2C(=O)O)c(C(=O)Nc2ccc(C(=N)N)cc2)c1 [substituted biphenyl derivative, 36j]	
950	CC(C)=CCc1ccc(-c2ccc(C(=O)NCC(C)C)cc2C(=O)O)c(C(=O)Nc2ccc(C(=N)N)cc2)c1 [substituted biphenyl derivative, 36k]	
740	CC(C)CNC(=O)c1ccc(-c2ccc(-c3ccoc3CO)cc2C(=O)Nc2ccc(C(=N)N)cc2)c(C(=O)O)c1 [substituted biphenyl derivative, 36ao]	
370	CC(C)CNC(=O)c1ccc(-c2ccc(-c3ccco3)cc2C(=O)Nc2ccc(C(=N)N)cc2)c(C(=O)O)c1 [substituted biphenyl derivative, 36ab]	
530	C=C(C)c1ccc(-c2ccc(C(=O)NCC(C)C)cc2C(=O)O)c(C(=O)Nc2ccc(C(=N)N)cc2)c1 [substituted biphenyl derivative, 36g]	
1770	CC(C)CNC(=O)c1ccc(-c2ccc(/C=C\CO)cc2C(=O)Nc2ccc(C(=N)N)cc2)c(C(=O)O)c1 [substituted biphenyl derivative, 36m]	IC50 ([2]; pH 7.2, 23 °C): 52 nM
1660	CC#Cc1ccc(-c2ccc(C(=O)NCC(C)C)cc2C(=O)O)c(C(=O)Nc2ccc(C(=N)N)cc2)c1 [substituted biphenyl derivative, 36i]	
400	CC(C)CNC(=O)c1ccc(-c2ccc(C#CCCO)cc2C(=O)Nc2ccc(C(=N)N)cc2)c(C(=O)O)c1 [substituted biphenyl derivative, 36q]	

Further lines, the compound ahead of its results:

SMILES	IC50 [1] [nM]	other results
C=Cc1ccc(-c2ccc(C(=O)NCC(C)C)cc2C(=O)O)c(C(=O)Nc2ccc(C(=N)N)cc2)c1 [substituted biphenyl derivative, 36b]	470	
CC(C)CNC(=O)c1ccc(-c2ccc(Cc3ccccc3)cc2C(=O)Nc2ccc(C(=N)N)cc2)c(C(=O)O)c1 [substituted biphenyl derivative, 36w]	570	
CC(C)CNC(=O)c1ccc(-c2ccc(-c3ccsc3)cc2C(=O)Nc2ccc(C(=N)N)cc2)c(C(=O)O)c1 [substituted biphenyl derivative, 36aa]	380	
COc1ccc(-c2ccc(C(=O)NCC(C)C)cc2C(=O)O)c(C(=O)Nc2ccc(C(=N)N)cc2)c1 [substituted biphenyl derivative, 24]	820	
CC(C)CNC(=O)c1ccc(-c2ccc(-c3cscc3CN)cc2C(=O)Nc2ccc(C(=N)N)cc2)c(C(=O)O)c1 [substituted biphenyl derivative, 36an]	1770	
N=C(N)c1ccc(NC(=O)c2ccccc2-c2ccccc2C(=O)O)cc1 [substituted biphenyl derivative, 9]		IC50 ([2]; 25 °C): 5720 nM
C#Cc1ccc(-c2ccc(C(=O)NCC(C)C)cc2C(=O)O)c(C(=O)Nc2ccc(C(=N)N)cc2)c1 [substituted biphenyl derivative, 36f]	2870	
CC(C)CNC(=O)c1ccc(-c2ccc(-c3cscc3CO)cc2C(=O)Nc2ccc(C(=N)N)cc2)c(C(=O)O)c1 [substituted biphenyl derivative, 36ak]	510	
C=C(CO)c1ccc(-c2ccc(C(=O)NCC(C)C)cc2C(=O)O)c(C(=O)Nc2ccc(C(=N)N)cc2)c1 [substituted biphenyl derivative, 36n]	3540	
CC(C)CNC(=O)c1ccc(-c2ccc(-c3occc3CO)cc2C(=O)Nc2ccc(C(=N)N)cc2)c(C(=O)O)c1 [substituted biphenyl derivative, 36aq]	770	
CCc1ccc(-c2ccc(C(=O)NCC(C)C)cc2C(=O)O)c(C(=O)Nc2ccc(C(=N)N)cc2)c1 [substituted biphenyl derivative, 36c]	5990	
CC(C)CNC(=O)c1ccc(-c2ccc(-c3ccncc3)cc2C(=O)Nc2ccc(C(=N)N)cc2)c(C(=O)O)c1 [substituted biphenyl derivative, 36x]	1210	
CC(C)CNC(=O)c1ccc(-c2ccc(C(O)CO)cc2C(=O)Nc2ccc(C(=N)N)cc2)c(C(=O)O)c1 (stereo not drawn) [substituted biphenyl derivative, 36s]	22100	
CC(C)CNC(=O)c1ccc(-c2ccc(Cc3cccs3)cc2C(=O)Nc2ccc(C(=N)N)cc2)c(C(=O)O)c1 [substituted biphenyl derivative, 36ag]	1510	
CC(C)CNC(=O)c1ccc(-c2ccc(O)cc2C(=O)Nc2ccc(C(=N)N)cc2)c(C(=O)O)c1 [substituted biphenyl derivative, 36a]	390	
CC(C)CNC(=O)c1ccc(-c2ccc(-c3cccs3)cc2C(=O)Nc2ccc(C(=N)N)cc2)c(C(=O)O)c1 [substituted biphenyl derivative, 36z]	240	
CC(C)CNC(=O)c1ccc(-c2ccc(-c3cscc3CN=[N+]=[N-])cc2C(=O)Nc2ccc(C(=N)N)cc2)c(C(=O)O)c1 [substituted biphenyl derivative, 36am]	1180	
CC(C)CNC(=O)c1ccc(-c2ccc(-c3cccn3C)cc2C(=O)Nc2ccc(C(=N)N)cc2)c(C(=O)O)c1 [substituted biphenyl derivative, 36ae]	410	
C=C(CCO)c1ccc(-c2ccc(C(=O)NCC(C)C)cc2C(=O)O)c(C(=O)Nc2ccc(C(=N)N)cc2)c1 [substituted biphenyl derivative, 36o]	2190	
CC(C)CNC(=O)c1ccc(-c2ccc(-c3cccnc3)cc2C(=O)Nc2ccc(C(=N)N)cc2)c(C(=O)O)c1 [substituted biphenyl derivative, 36y]	3020	
CC(C)CNC(=O)c1ccc(-c2ccc(-c3cocc3CO)cc2C(=O)Nc2ccc(C(=N)N)cc2)c(C(=O)O)c1 [substituted biphenyl derivative, 36ap]	2290	
